Measurements: patent US8735538B1, “Use of methanobactin” (priority 2006, dated 2014)
Read-outs that look alike come from different tables or passages of the source.

How the values were obtained:
[1] = ITC, metal binding to mb: Ag(I); details: Ag(I) column
Procedure: (§1) FIG. 14. Binding isotherm of 3.2 mM HgCl2 (A), HAuCl4 (B), AgNO3 (C) NiCl2 (D), ZnCl2 (E) or FeCl3 (F) into 400 μM mb (cell) aqueous solution at 25° C. Binding isotherm of 1.6 mM HAuCl4 (B). The curve fittings for two-site binding algorithm were used.
(§2) FIG. 15. Binding isotherm of 3.2 mM CdCl2 (A), CoCl2(B), FeCl3 (C), or MnCl2(D) into […] mb aqueous solution at 25° C. Curve fittings for one-site binding algorithm (B, D) or two-site binding algorithm (A, C) were used.
(§3) ITC was performed with following modifications from the previously described procedure (Choi et al., 2006). First, concentrations of the titrant and cell solutions were raised to 3.2 mM and 0.4 mM, respectively. Second, the interval between titrant injections were decreased to 600 s and the stirring rate decreased to 380 rpm.

[2] = ITC, metal binding to mb: Au(III); details: column headed Au(II)
Procedure: as §1, §2, §3

[3] = ITC, metal binding to mb: Hg(II); details: Hg(II) column
Procedure: as §1, §2, §3

[4] = ITC, metal binding to mb: Pb(II); details: Pb(II) column, one-site binding model
Procedure: as §1, §2, §3

[5] = ITC, metal binding to mb: Cd(II); details: Cd(II) column
Procedure: as §1, §2, §3

[6] = ITC, metal binding to mb: Co(II); details: Co(II) column, one-site fit, 25° C.
Procedure: as §1, §2, §3

[7] = ITC, metal binding to mb: Fe(III); details: Fe(III) column
Procedure: as §1, §2, §3

[8] = ITC, metal binding to mb: Mn(II); details: Mn(II) column, one-site fit, 25° C.
Procedure: as §1, §2, §3

[9] = ITC, metal binding to mb: Ni(II); details: Ni(II) column
Procedure: as §1, §2, §3

[10] = ITC, metal binding to mb: Zn(II); details: Zn(II) column
Procedure: as §1, §2, §3

[11] = Initial screening by UV-visible absorption spectroscopy: Ag(I); assay type: binding; details: in the absence of Cu(II) or Cu(I)
Procedure: (§4) Metal titration experiments were determined by addition of 100 μM, 1 mM, or 10 mM solutions of AgNO3, HAuCl4, CdCl2, CoCl2, CrO3, CuSO4, FeCl3, HgCl2, MgCl2, MnCl2, NiCl2, Pb(NO3)2, UO2(NO3)2, or ZnSO4 to 50 μM methanobactin dissolved in H2O, pH 6.8 as previously described for Cu(II) or Cu(I) titrations (Choi et al., 2006) unless otherwise stated. Glassware was soaked in 0.1 N HNO3 for 12 hours then rinsed with milliQ H2O. For the metal replacement experiments, 50 μM aqueous mb solutions were preloaded with equimolar of AgNO3, HAuCl4, CaCl2, CdCl2, CoCl2, CrO3, CuSO4, FeCl3, HgCl2, MgCl2, MnCl2, NiCl2, Pb(NO3)2, UO2(NO3)2, or ZnSO4, incubated for 10 minutes followed by the addition of equimolar CuSO4 then monitored via UV-visible absorption spectroscopy every 30 seconds for 0.5-120 minutes. Between scans the samples were stored in the dark to avoid photodegradation (Choi et al., 2005).
(§5) UV-visible absorption, florescence spectra, circular dichroism (CD), and metal determinations via inductively coupled plasma atomic emission-mass spectroscopy (ICP-MS) were determined as previously described (Choi et al., 2003; Choi et al., 2006). In contrast to a previous report (Choi et al., 2006), the base line was used as a reference point of 0 instead of isosbestic point e for the comparison of Δεs.

[12] = Initial screening by UV-visible absorption spectroscopy: Au(III); assay type: binding; details: in the absence of Cu(II) or Cu(I)
Procedure: as §4, §5

[13] = Initial screening by UV-visible absorption spectroscopy: Cd(II); assay type: binding; details: in the absence of Cu(II) or Cu(I)
Procedure: as §4, §5

[14] = Initial screening by UV-visible absorption spectroscopy: Co(II); assay type: binding; details: in the absence of Cu(II) or Cu(I)
Procedure: as §4, §5

[15] = Initial screening by UV-visible absorption spectroscopy: Fe(III); assay type: binding; details: in the absence of Cu(II) or Cu(I)
Procedure: as §4, §5

[16] = Initial screening by UV-visible absorption spectroscopy: Hg(II); assay type: binding; details: in the absence of Cu(II) or Cu(I)
Procedure: as §4, §5

[17] = Initial screening by UV-visible absorption spectroscopy: Mn(II); assay type: binding; details: in the absence of Cu(II) or Cu(I)
Procedure: as §4, §5

[18] = Initial screening by UV-visible absorption spectroscopy: Ni(II); assay type: binding; details: in the absence of Cu(II) or Cu(I)
Procedure: as §4, §5

[19] = Initial screening by UV-visible absorption spectroscopy: Pb(II); assay type: binding; details: in the absence of Cu(II) or Cu(I)
Procedure: as §4, §5

[20] = Initial screening by UV-visible absorption spectroscopy: U(VI); assay type: binding; details: in the absence of Cu(II) or Cu(I)
Procedure: as §4, §5

[21] = Initial screening by UV-visible absorption spectroscopy: Zn(II); assay type: binding; details: in the absence of Cu(II) or Cu(I)
Procedure: as §4, §5

[22] = Initial screening by UV-visible absorption spectroscopy: Ba(II); assay type: binding; details: in the absence of Cu(II) or Cu(I)
[23] = Initial screening by UV-visible absorption spectroscopy: La(III); assay type: binding; details: in the absence of Cu(II) or Cu(I)
[24] = Initial screening by UV-visible absorption spectroscopy: Mg(II); assay type: binding; details: in the absence of Cu(II) or Cu(I)
Procedure: as §4, §5

[25] = Initial screening by UV-visible absorption spectroscopy: Sr(II); assay type: binding; details: in the absence of Cu(II) or Cu(I)
[26] = XPS, oxidation state of metal bound to mb: Au(III)
Description: FIG. 11. (A) Gold X-ray photoelectric spectra of mb at gold to mb molar ratios between 0.05 and 10 Au per mb. (B) Corrected signal from Au(0) (◯) and Au(III) (●) at different gold:mb molar ratios.
(§6) XPS was preformed on a model Phoibos-150 hemispherical analyzer (SPECS Scientific Instruments, Sarasota, Fla.) or on a model 5600ci spectrophotometer (Perkin-Elmer Inc., Eden Prairie, Minn.) as previously described (Choi et al., 2006).

[27] = XPS, oxidation state of metal bound to mb: Ni(II)
Description: as §6

[28] = Cu(II) column, cited from earlier work
[29] = first site, two-site fit, 25° C.

With methanobactin [mb] the K1 [1, 29] was 2.6 ± 0.4 × 10^7 M^−1, the K1 ([1]; second site) was 4.7 ± 0.45 × 10^4 M^−1 and the K1 [2, 29] was 1.0 ± 0.5 × 10^5 M^−1. For the same substance, the K1 ([2]; second site) was 1.8 ± 0.2 × 10^5 M^−1, the K1 [3, 29] was 9.9 ± 2.9 × 10^6 M^−1 and the K1 ([3]; second site) was 89.9 ± 0.01 × 10^4 M^−1. The K1 [4] was 6.84 ± 0.4 × 10^5 M^−1, the K1 [5, 29] was 1.3 ± 0.8 × 10^6 M^−1 and the K1 ([5]; second site) was 1.1 ± 0.6 × 10^7 M^−1. The K1 [6] was 1.1 ± 0.2 × 10^6 M^−1, the K1 [7, 29] was 9.7 ± 0.6 × 10^5 M^−1 and the K1 ([7]; second site) was 1.7 ± 0.7 x10^5 M^−1. For the same substance, the K1 [8] was 7.7 ± 1.8 × 10^5 M^−1, the K1 [9, 29] was 4.9 ± 0.9 × 10^5 M^−1 and the K1 ([9]; second site) was 1.17 ± 0.5 × 10^7 M^−1. For the same substance, the K1 [10, 29] was 4.5 ± 1.4 × 10^6 M^−1, the K1 ([10]; second site) was 1.8 ± 0.1 × 10^4 M^−1 and the “binding of Ag(I) by mb” value [11] was “will bind”. For the same substance, the “binding of Au(III) by mb” value [12] was “will bind”, the “binding of Cd(II) by mb” value [13] was “will bind” and the “binding of Co(II) by mb” value [14] was “will bind”. The “binding of Fe(III) by mb” value [15] was “will bind”, the “binding of Hg(II) by mb” value [16] was “will bind” and the “binding of Mn(II) by mb” value [17] was “will bind”. The “binding of Ni(II) by mb” value [18] was “will bind”, the “binding of Pb(II) by mb” value [19] was “will bind” and the “binding of U(VI) by mb” value [20] was “will bind”. For the same substance, the “binding of Zn(II) by mb” value [21] was “will bind”, the “binding of Ba(II) by mb” value [22] was “not” and the “binding of La(III) by mb” value [23] was “not”. The “binding of Mg(II) by mb” value [24] was “not”, the “binding of Sr(II) by mb” value [25] was “not” and the “Au to mb ratio above which Au(III) is detected in reaction mixtures” value [26] was > 2 Au(III) per mb. The “oxidation state of Au(III) after binding by mb” value ([26]; no external reductant) was “reduced to Au(0)”, the “oxidation state of Ni(II) following binding to mb” value [27] was “did not change” and the K1 ([28]; first site) was 3.3e+34 ± 3e+11 M⁻¹. For the same substance, the K1 ([28]; second site) was 2.6 ± 0.5 × 10^8 M^−1.
